Source: US20250144067A1, “PERSONALIZED STARVATION THERAPY FOR CANCER” (Faeth Therapeutics, Inc., priority 2021, published 2025)
Structures can show the parent of a compound that is named as a salt. Where two headings read alike, the source gives them in different places.

Tests used:
[1] = system: NCI-H292 lung cancer cells; experiment: FDA drug screening, complete media vs cholesterol-free media without statin (TABLE 1); format: cell-based, human
[2] = system: NCI-H292 lung cancer cells; experiment: FDA drug screening, complete media vs cholesterol-free media with simvastatin (TABLE 2); format: cell-based, human
[3] = Complete minus Cholesterol-free, greater than 0 enhanced anti-cancer activity, about 0 neutral, below 0 antagonists
[4] = NCI-H292 cells in cholesterol-free media without statin
[5] = NCI-H292 cells in complete media
[6] = NCI-H292 cells, FDA library drug in cholesterol-free media with simvastatin 0.04 μM
[7] = NCI-H292 cells, FDA library drug in complete media
[8] = complete media vs cholesterol-free media + simvastatin (0.04 μM), >0 enhanced anti-cancer activity, about 0 neutral, <0 antagonist
[9] = Complete minus Cholesterol-free, […]
[10] = NCI-H292 cells, cholesterol-free media without statin, FDA drug library screen
[11] = NCI-H292 cells, complete media, FDA drug library screen
[12] = complete media minus cholesterol-free media + simvastatin, […]
[13] = NCI-H292 cells, cholesterol-free media without statin
[14] = complete vs cholesterol-free media, […]
[15] = NCI-H292 cells, FDA drug library screen, cholesterol-free media with simvastatin 0.04 μM
[16] = NCI-H292 cells, FDA drug library screen, complete media
[17] = Complete minus Cholesterol-free, greater than 0 enhanced anti-cancer activity, about 0 neutral, below 0 antagonist
[18] = NCI-H292 cells, FDA drug library screen, cholesterol-free media without statin
[19] = NCI-H292 cells, cholesterol-free media with simvastatin 0.04 μM, cell growth value in FDA drug screen
[20] = NCI-H292 cells, complete media, cell growth value in FDA drug screen
[21] = complete media minus cholesterol-free media + simvastatin, >0 enhanced anti-cancer activity, about 0 neutral, <0 antagonist
[22] = Complete minus Cholesterol-free, >0 enhanced anti-cancer activity, about 0 neutral, <0 antagonist
[23] = NCI-H292 cells, cholesterol-free media with simvastatin 0.04 μM, FDA drug library screen (TABLE 2)
[24] = NCI-H292 cells, complete media, FDA drug library screen (TABLE 2)

Compound: C[C@H]1CN(C[C@H](Cc2ccccc2)C(=O)NCC(=O)O)CC[C@@]1(C)c1cccc(O)c1 [Alvimopan (dihydrate)]
- Difference [1, 3]: −1.02
- Cholesterol-free [1, 4]: 1.958
- Complete [1, 5]: 0.9383
- Cholesterol-free media + simvastatin (0.04 μM) [2, 6]: 1.255
- Complete Media [2, 7]: 0.9864
- Difference [2, 8]: −0.27

Compound: CC(C)N(CCNC(=O)CN1CCCC1=O)C(C)C [Pramiracetam]
- Difference [1, 9]: −0.05
- Cholesterol-free [1, 10]: 1.059
- Complete [1, 11]: 1.007
- Cholesterol-free media + simvastatin (0.04 μM) ([2]; NCI-H292 cells, cholesterol-free media with simvastatin 0.04 μM, […]): 0.8266
- Complete Media ([2]; NCI-H292 cells, complete media, […]): 0.938
- Difference [2, 12]: 0.11

Compound: Kanamycin (sulfate)
- Cholesterol-free [1, 13]: 1.851
- Complete ([1]; NCI-H292 cells, complete media): 1.486
- Difference [1, 14]: −0.36
- Cholesterol-free media + simvastatin (0.04 μM) [2, 15]: 1.825
- Complete Media [2, 16]: 1.703
- Difference ([2]; complete media vs cholesterol-free media + simvastatin (0.04 μM), […]): −0.12

Compound: COC(=O)C1=C(C)NC(C)=C(C(=O)OCCN2CCN(C(c3ccccc3)c3ccccc3)CC2)C1c1cccc([N+](=O)[O-])c1 (stereo not drawn) [Manidipine (dihydrochloride)]
- Difference [1, 17]: −0.08
- Cholesterol-free [1, 18]: 0.814
- Complete [1, 16]: 0.7357
- Cholesterol-free media + simvastatin (0.04 μM) [2, 19]: 1.023
- Complete Media [2, 20]: 1.051
- Difference [2, 21]: 0.03

Compound: C=C[C@H]1C[N@@]2CC[C@H]1C[C@H]2[C@H](O)c1ccnc2ccc(OC)cc12 [Quinine (hydrochloride dihydrate)]
- Difference [1, 22]: 0.03
- Cholesterol-free media + simvastatin (0.04 μM) [2, 15]: 1.208
- Difference [2, 8]: −0.15

Compound: CC(C)Cn1cnc2c(N)nc3ccccc3c21 [Imiquimod (hydrochloride)]
- Cholesterol-free [1]: 0.8815
- Complete [1]: 1.16
- Difference [1]: 0.28
- Cholesterol-free media + simvastatin (0.04 μM) [2]: 1.323
- Complete Media [2]: 1.16
- Difference [2]: −0.16

Compound: CCCCNc1cc(C(=O)O)cc(S(N)(=O)=O)c1Oc1ccccc1 [Bumetanide]
- Difference [1, 22]: 0.04
- Cholesterol-free [1, 10]: 0.6987
- Complete [1, 11]: 0.7406
- Cholesterol-free media + simvastatin (0.04 μM) [2, 19]: 1.046
- Complete Media [2, 20]: 1.138
- Difference [2, 21]: 0.09

Compound: CCOC(=O)n1ccn(C)c1=S [Carbimazole]
- Cholesterol-free [1, 10]: 1.183
- Complete [1, 11]: 1.469
- Difference ([1]; complete vs cholesterol-free media, >0 enhanced anti-cancer activity, about 0 neutral, <0 antagonist): 0.29
- Cholesterol-free media + simvastatin (0.04 μM) [2, 19]: 1.468
- Complete Media [2, 20]: 1.519
- Difference [2, 21]: 0.05

Compound: O=S(=O)([O-])CCSSCCS(=O)(=O)[O-].[Na+].[Na+] [Dimesna]
- Difference [1, 9]: −0.18
- Cholesterol-free [1, 18]: 1.073
- Complete [1, 16]: 0.897
- Cholesterol-free media + simvastatin (0.04 μM) [2, 15]: 0.7165
- Complete Media [2, 16]: 1.057
- Difference [2, 12]: 0.34

Compound: CC(C)(N)CNC(=O)C[C@H]1CC[C@]2(CC1)OO[C@]1(O2)C2CC3CC(C2)CC1C3 [Arterolane]
- Difference [1, 17]: −0.17
- Cholesterol-free [1, 18]: 1.167
- Complete [1, 16]: 0.9934
- Cholesterol-free media + simvastatin (0.04 μM) [2, 15]: 1.129
- Complete Media [2, 16]: 1.314
- Difference [2, 21]: 0.19

Compound: CC[C@H](Nc1ncnc2[nH]cnc12)c1nc2cccc(F)c2c(=O)n1-c1ccccc1 [Idelalisib]
- Difference [1, 17]: −0.13
- Cholesterol-free [1, 18]: 1.096
- Complete [1, 16]: 0.9672
- Cholesterol-free media + simvastatin (0.04 μM) [2, 6]: 1.507
- Complete Media [2, 7]: 1.219
- Difference [2, 8]: −0.29

Compound: COc1ccc(CCNCC(O)COc2cccc(C)c2)cc1OC (stereo not drawn) [Bevantolol (hydrochloride)]
- Difference [1, 3]: −0.52
- Cholesterol-free [1, 4]: 1.227
- Complete [1, 5]: 0.7079
- Cholesterol-free media + simvastatin (0.04 μM) [2, 6]: 1.404
- Complete Media [2, 7]: 0.952
- Difference [2, 8]: −0.45

Compound: CN(C)[C@@H]1C(O)=C(C(N)=O)C(=O)[C@@]2(O)C(O)=C3C(=O)c4c(O)cccc4[C@@](C)(O)[C@H]3[C@H](O)[C@@H]12 [Oxytetracycline (hydrochloride)]
- Difference [1, 3]: −0.72
- Cholesterol-free [1, 4]: 1.728
- Complete [1, 5]: 1.007
- Cholesterol-free media + simvastatin (0.04 μM) [2, 23]: 0.991
- Complete Media [2, 24]: 0.9652
- Difference ([2]; complete media minus cholesterol-free media + simvastatin (0.04 μM), >0 enhanced anti-cancer activity, about 0 neutral, <0 antagonist): −0.03

Compound: Rasagiline (mesylate)
- Difference [1, 17]: −0.16
- Cholesterol-free [1, 18]: 0.8816
- Complete [1, 16]: 0.7256
- Cholesterol-free media + simvastatin (0.04 μM) [2, 15]: 1.319
- Complete Media [2, 16]: 1.208
- Difference [2, 8]: −0.11

Compound: O=C1c2c(O)ccc(O)c2C(=O)c2c(NCCNCCO)ccc(NCCNCCO)c21 [Mitoxantrone (dihydrochloride)]
- Difference [1, 22]: 0.00
- Cholesterol-free [1, 10]: −0.002893
- Complete [1, 11]: −0.002012
- Cholesterol-free media + simvastatin (0.04 μM) [2, 19]: 0.006643
- Complete Media [2, 20]: 0.04976
- Difference [2, 21]: 0.04

Compound: CSCC1CN(/N=C/c2ccc([N+](=O)[O-])o2)C(=O)O1 (stereo not drawn) [Nifuratel]
- Difference [1, 22]: −0.23
- Cholesterol-free [1, 13]: 1.253
- Complete ([1]; NCI-H292 cells, complete media): 1.019
- Cholesterol-free media + simvastatin (0.04 μM) [2, 6]: 1.397
- Complete Media [2, 7]: 1.12
- Difference [2, 8]: −0.28

Compound: CO[C@H]1C[C@@H]2CC[C@@H](C)[C@@](O)(O2)C(=O)C(=O)N2CCCC[C@H]2C(=O)O[C@H]([C@H](C)C[C@@H]2CC[C@@H](OC(=O)C(C)(CO)CO)[C@H](OC)C2)CC(=O)[C@H](C)/C=C(\C)[C@@H](O)[C@@H](OC)C(=O)[C@H](C)C[C@H](C)/C=C/C=C/C=C/1C [Temsirolimus]
- Difference [1, 22]: −0.06
- Cholesterol-free [1, 10]: 0.4176
- Complete [1, 11]: 0.3544
- Cholesterol-free media + simvastatin (0.04 μM) [2, 19]: 0.4472
- Complete Media [2, 20]: 0.5571
- Difference [2, 21]: 0.11

Compound: Nc1ncnc2c1ncn2CCOCP(=O)(O)O [Adefovir]
- Cholesterol-free [1, 10]: 0.8102
- Complete [1, 11]: 1.199
- Difference [1, 14]: 0.39
- Cholesterol-free media + simvastatin (0.04 μM) [2, 23]: 0.9937
- Complete Media [2, 24]: 0.9462
- Difference ([2]; complete media minus cholesterol-free media + simvastatin (0.04 μM), […]): −0.05

Compound: Nc1c2ccccc2nc2ccccc12 [9-Aminoacridine]
- Difference [1, 22]: −0.03
- Cholesterol-free [1, 10]: 0.5968
- Complete [1, 11]: 0.5645
- Cholesterol-free media + simvastatin (0.04 μM) [2, 15]: 0.3257
- Complete Media [2, 16]: 0.5257
- Difference [2, 21]: 0.20

Compound: O=C(OCCOCCO)c1ccccc1Nc1cccc(C(F)(F)F)c1 [Etofenamate]
- Difference [1, 22]: 0.02
- Cholesterol-free [1, 10]: 1.014
- Complete [1, 11]: 1.036
- Cholesterol-free media + simvastatin (0.04 μM) [2, 6]: 2.387
- Complete Media [2, 7]: 1.527
- Difference [2, 8]: −0.86

Compound: C[N+](C)(C)CCO.O=C([O-])C(O)C(O)C(=O)O (stereo not drawn) [Choline (bitartrate)]
- Cholesterol-free [1]: 1.646
- Complete [1]: 0.8603
- Difference [1]: −0.79
- Cholesterol-free media + simvastatin (0.04 μM) [2]: 1.34
- Complete Media [2]: 1.054
- Difference [2]: −0.29

Compound: CCCCC(CC)COC(=O)CC(C(=O)OCC(CC)CCCC)S(=O)(=O)O (stereo not drawn) [Docusate (Sodium)]
- Cholesterol-free [1, 13]: 1.285
- Complete ([1]; NCI-H292 cells, complete media): 0.839
- Difference ([1]; complete vs cholesterol-free media, greater than 0 enhanced anti-cancer activity, about 0 neutral, below 0 antagonists): −0.45
- Cholesterol-free media + simvastatin (0.04 μM) ([2]; NCI-H292 cells, drug in cholesterol-free media with simvastatin 0.04 μM): 1.08
- Complete Media ([2]; NCI-H292 cells, drug in complete media): 0.9061
- Difference [2, 8]: −0.17
